Measurements taken from ChEMBL document CHEMBL4420076, “Amylin and calcitonin receptor agonist” (2017).
Numbered stars: 1 amine (or outer) side, 2 acyl side, 3 side chain; on linkers, the order of the positions; unused ones are H or OH. Peptide text beside a SMILES is read from it. * marks the point of attachment. C20 diacid = O=C(O)CCCCCCCCCCCCCCCCCCC(=O)*; γGlu = O=C(O)[C@H](CCC(=O)[*:2])N[*:1]

Columns and labels:
[1] = Solubility in 100 mM bistrispropane buffer at pH 6.0 incubated for 18 hrs by UPLC analysis; format: physicochemical
[2] = Solubility in 100 mM glycylglycine buffer at pH 3.0 incubated for 18 hrs by UPLC analysis; format: physicochemical
[3] = biological target: T1, Amylin receptor AMY3; CALCR/RAMP3 (Homo sapiens, UniProt O60896+P30988); test: Agonist activity at human amylin receptor expressed in BHK570 cells co-expressing RAMP3 assessed as increase in intracellular cAMP concentration incubated for 3 hrs in presence of 10% FBS by CRE luciferase reporter gene assay; format: functional, cell-based
T1 sequence (P30988 whole entry): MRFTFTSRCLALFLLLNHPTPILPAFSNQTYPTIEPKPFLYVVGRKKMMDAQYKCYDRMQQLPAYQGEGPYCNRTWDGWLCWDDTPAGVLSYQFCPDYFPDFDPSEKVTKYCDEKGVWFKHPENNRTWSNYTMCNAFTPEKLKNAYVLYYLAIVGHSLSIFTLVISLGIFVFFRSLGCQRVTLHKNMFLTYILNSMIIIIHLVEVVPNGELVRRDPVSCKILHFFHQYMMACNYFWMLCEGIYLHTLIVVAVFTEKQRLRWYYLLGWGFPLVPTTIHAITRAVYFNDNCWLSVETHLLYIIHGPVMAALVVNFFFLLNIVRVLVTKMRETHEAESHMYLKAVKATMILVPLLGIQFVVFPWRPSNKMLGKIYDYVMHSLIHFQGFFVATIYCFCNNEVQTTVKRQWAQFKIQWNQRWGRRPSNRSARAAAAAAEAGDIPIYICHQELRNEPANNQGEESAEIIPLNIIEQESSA
T1 sequence (O60896 whole entry): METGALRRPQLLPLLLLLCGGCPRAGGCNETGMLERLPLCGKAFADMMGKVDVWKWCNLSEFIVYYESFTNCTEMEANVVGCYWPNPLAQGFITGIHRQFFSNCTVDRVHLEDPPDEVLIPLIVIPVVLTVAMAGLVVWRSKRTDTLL

[4] = biological target: T1, Amylin receptor AMY3; CALCR/RAMP3; test: Agonist activity at human amylin receptor expressed in BHK570 cells co-expressing RAMP3 assessed as increase in intracellular cAMP concentration incubated for 3 hrs in absence of albumin by CRE luciferase reporter gene assay; format: functional, cell-based
[5] = Solubility in 100 mM bistrispropane buffer at pH 8.0 incubated for 18 hrs by UPLC analysis; format: physicochemical
[6] = Solubility in 100 mM glycylglycine buffer at pH 4.0 incubated for 18 hrs by UPLC analysis; format: physicochemical
Calcitonin receptor [7] = biological target: T2, Calcitonin receptor (Homo sapiens, UniProt P30988); test: Agonist activity at human calcitonin receptor expressed in BHK570 cells assessed as increase in intracellular cAMP concentration incubated for 3 hrs in presence of 10% FBS by CRE luciferase reporter gene assay; format: functional, cell-based
T2 sequence (P30988 whole entry): T1 sequence (P30988 whole entry)

[8] = Solubility in 100 mM bistrispropane buffer at pH 7.0 incubated for 18 hrs by UPLC analysis; format: physicochemical
[9] = Solubility in 100 mM bistrispropane buffer at pH 6.5 incubated for 18 hrs by UPLC analysis; format: physicochemical
Rattus norvegicus [10] = test: Reduction in food intake in Sprague-Dawley rat at 3 nmol/kg measured 24 to 48 hrs post dose relative to control; format: functional; parameters: scale not given: the % may be the effect or the level left
Calcitonin receptor [11] = biological target: T2, Calcitonin receptor; test: Agonist activity at human calcitonin receptor expressed in BHK570 cells assessed as increase in intracellular cAMP concentration incubated for 3 hrs in absence of albumin by CRE luciferase reporter gene assay; format: functional, cell-based
[12] = Stability in pH 7.5 buffer assessed as compound recovery at 1 uM by Thioflavin T based fluorescence assay; format: physicochemical; settings: read-out: Drug recovery
[13] = Solubility in 100 mM bistrispropane buffer at pH 7.5 incubated for 18 hrs by UPLC analysis; format: physicochemical
[14] = Stability in pH 7.5 buffer assessed as lag time for fibril formation at 1 uM by Thioflavin T based fluorescence assay; format: physicochemical; settings: pH 7.5, 1 µM
Rattus norvegicus [15] = test: Reduction in food intake in Sprague-Dawley rat at 3 nmol/kg measured 0 to 24 hrs post dose relative to control; format: functional; parameters: scale not given: the % may be the effect or the level left
[16] = Solubility in 100 mM glycylglycine buffer at pH 5.0 incubated for 18 hrs by UPLC analysis; format: physicochemical

Row | SMILES | solubility at 18 h [1] | solubility at 18 h [2] | EC50 [3] | EC50 [4] | solubility at 18 h [5] | solubility at 18 h [6] | EC50 (Calcitonin receptor [7]) | solubility at 18 h [8] | solubility at 18 h [9] | EC50 (Calcitonin receptor [11]) | remaining at 1 µM [12] | solubility at 18 h [13] | Time [14] | solubility at 18 h [16] | Activity (Rattus norvegicus [10]) | Activity (Rattus norvegicus [15])
1 | CC(C)C[C@H](NC(=O)CNC(=O)[C@H](CO)NC(=O)[C@H](C)NC(=O)CC[C@H](NC(=O)CCCCCCCCCCCCCCCCCCC(=O)O)C(=O)O)C(=O)N[C@@H](CO)C(=O)N[C@H](C(=O)N[C@@H](C)C(=O)N[C@@H](C)C(=O)N[C@@H](CC(C)C)C(=O)NCC(=O)N[C@@H](CCCNC(=N)N)C(=O)N[C@@H](CC(C)C)C(=O)N[C@@H](CO)C(=O)N[C@@H](CCC(N)=O)C(=O)N[C@@H](CCC(=O)O)C(=O)N[C@@H](CC(C)C)C(=O)N[C@@H](Cc1cnc[nH]1)C(=O)N[C@@H](CCC(=O)O)C(=O)N[C@@H](CC(C)C)C(=O)N[C@@H](CCC(=O)O)C(=O)N[C@H](C(=O)N[C@@H](Cc1ccc(O)cc1)C(=O)N1CCC[C@H]1C(=O)N[C@@H](CCCNC(=N)N)C(=O)N[C@H](C(=O)N[C@@H](CCC(=O)O)C(=O)N[C@H](C(=O)NCC(=O)N[C@@H](CO)C(=O)NCC(=O)N[C@H](C(=O)N[C@@H](Cc1ccc(O)cc1)C(N)=O)[C@@H](C)O)[C@@H](C)O)[C@@H](C)O)[C@@H](C)O)[C@@H](C)O ({C20 diacid-γGlu}-ASGLSTAALGRLSQELHELETYPRTETGSGTY-NH2) | ≥ 200 µM | ≥ 200 µM | 150 pM | – | ≥ 200 µM | ≥ 200 µM | 68 pM | ≥ 200 µM | ≥ 200 µM | – | 100% | ≥ 200 µM | > 45 h | – | 26% | 27%
2 | CC(C)C[C@H](NC(=O)CNC(=O)[C@H](CO)NC(=O)[C@H](C)NC(=O)CC[C@H](NC(=O)CCCCCCCCCCCCCCCCCCC(=O)O)C(=O)O)C(=O)N[C@@H](CO)C(=O)N[C@H](C(=O)N[C@@H](C)C(=O)N[C@H](C(=O)N[C@@H](CC(C)C)C(=O)NCC(=O)N[C@@H](CCCNC(=N)N)C(=O)N[C@@H](CC(C)C)C(=O)N[C@@H](CO)C(=O)N[C@@H](CCC(N)=O)C(=O)N[C@@H](CCC(=O)O)C(=O)N[C@@H](CC(C)C)C(=O)N[C@@H](Cc1cnc[nH]1)C(=O)N[C@@H](CCC(=O)O)C(=O)N[C@@H](CC(C)C)C(=O)N[C@@H](CCC(N)=O)C(=O)N[C@H](C(=O)N[C@@H](CC(C)C)C(=O)N[C@@H](CCC(N)=O)C(=O)N[C@H](C(=O)N[C@@H](Cc1ccc(O)cc1)C(=O)N1CCC[C@H]1C(=O)N[C@@H](CCCNC(=N)N)C(=O)N[C@H](C(=O)N[C@@H](CCC(=O)O)C(=O)N[C@H](C(=O)NCC(=O)N[C@@H](CO)C(=O)N[C@@H](CCC(N)=O)C(=O)N[C@H](C(=O)N[C@@H](Cc1ccc(O)cc1)C(N)=O)[C@@H](C)O)[C@@H](C)O)[C@@H](C)O)[C@@H](C)O)[C@@H](C)O)C(C)C)[C@@H](C)O ({C20 diacid-γGlu}-ASGLSTAVLGRLSQELHELQTLQTYPRTETGSQTY-NH2) | ≥ 200 µM | ≥ 200 µM | 185 pM | 54 pM | ≥ 200 µM | – | 99 pM | ≥ 200 µM | ≥ 200 µM | 45 pM | 2% | ≥ 200 µM | 8 h | – | 10% | 25%
3 | CC(C)C[C@H](NC(=O)CNC(=O)[C@H](CO)NC(=O)[C@H](C)NC(=O)CC[C@H](NC(=O)CCCCCCCCCCCCCCCCCCC(=O)O)C(=O)O)C(=O)N[C@@H](CO)C(=O)N[C@H](C(=O)N[C@@H](C)C(=O)N[C@H](C(=O)N[C@@H](CC(C)C)C(=O)NCC(=O)N[C@@H](CCCNC(=N)N)C(=O)N[C@@H](CC(C)C)C(=O)N[C@@H](CO)C(=O)N[C@@H](CCC(N)=O)C(=O)N[C@@H](CCC(=O)O)C(=O)N[C@@H](CC(C)C)C(=O)N[C@@H](Cc1cnc[nH]1)C(=O)N[C@@H](CCC(=O)O)C(=O)N[C@@H](CC(C)C)C(=O)N[C@@H](CCC(N)=O)C(=O)N[C@H](C(=O)N[C@@H](Cc1ccc(O)cc1)C(=O)N1CCC[C@H]1C(=O)N1CCC[C@H]1C(=O)N[C@H](C(=O)N[C@@H](CCC(=O)O)C(=O)N[C@H](C(=O)NCC(=O)N[C@@H](CO)C(=O)N[C@@H](CCC(N)=O)C(=O)N[C@H](C(=O)N[C@@H](Cc1ccc(O)cc1)C(N)=O)[C@@H](C)O)[C@@H](C)O)[C@@H](C)O)[C@@H](C)O)C(C)C)[C@@H](C)O ({C20 diacid-γGlu}-ASGLSTAVLGRLSQELHELQTYPPTETGSQTY-NH2) | ≥ 200 µM | ≥ 200 µM | 152 pM | – | ≥ 200 µM | – | 72 pM | ≥ 200 µM | ≥ 200 µM | 57 pM | 100% | ≥ 200 µM | > 45 h | ≥ 200 µM | 5% | 9%

Now from value to molecule, other results behind:

Row | solubility at 18 h [1] | solubility at 18 h [2] | EC50 [3] | EC50 [4] | solubility at 18 h [5] | solubility at 18 h [6] | EC50 (Calcitonin receptor [7]) | solubility at 18 h [8] | solubility at 18 h [9] | EC50 (Calcitonin receptor [11]) | remaining at 1 µM [12] | solubility at 18 h [13] | Time [14] | solubility at 18 h [16] | SMILES | Activity (Rattus norvegicus [10]) | Activity (Rattus norvegicus [15])
4 | ≥ 200 µM | ≥ 200 µM | 93 pM | 32 pM | ≥ 200 µM | ≥ 200 µM | 71 pM | ≥ 200 µM | ≥ 200 µM | 29 pM | 100% | ≥ 200 µM | > 45 h | – | CC(C)C[C@H](NC(=O)[C@H](C)NC(=O)[C@H](C)NC(=O)[C@@H](NC(=O)[C@H](CO)NC(=O)[C@H](CC(C)C)NC(=O)[C@H](CCC(=O)O)NC(=O)[C@H](CO)NC(=O)[C@H](C)NC(=O)CC[C@H](NC(=O)CCCCCCCCCCCCCCCCCCC(=O)O)C(=O)O)[C@@H](C)O)C(=O)NCC(=O)N[C@@H](CCCNC(=N)N)C(=O)N[C@@H](CC(C)C)C(=O)N[C@@H](CO)C(=O)N[C@@H](C)C(=O)N[C@@H](CCC(=O)O)C(=O)N[C@@H](CC(C)C)C(=O)N[C@@H](Cc1cnc[nH]1)C(=O)N[C@@H](CCC(=O)O)C(=O)N[C@@H](CC(C)C)C(=O)N[C@@H](C)C(=O)N[C@H](C(=O)N[C@@H](Cc1ccc(O)cc1)C(=O)N1CCC[C@H]1C(=O)N[C@@H](CCCNC(=N)N)C(=O)N[C@H](C(=O)N[C@@H](CCC(=O)O)C(=O)N[C@H](C(=O)NCC(=O)N[C@@H](CO)C(=O)NCC(=O)N[C@@H](CO)C(=O)N[C@@H](Cc1ccc(O)cc1)C(N)=O)[C@@H](C)O)[C@@H](C)O)[C@@H](C)O ({C20 diacid-γGlu}-ASELSTAALGRLSAELHELATYPRTETGSGSY-NH2) | 56% | 49%
5 | ≥ 200 µM | ≥ 200 µM | 122 pM | – | ≥ 200 µM | ≥ 200 µM | 53 pM | ≥ 200 µM | ≥ 200 µM | 70 pM | 100% | ≥ 200 µM | > 45 h | – | CC(C)C[C@H](NC(=O)CNC(=O)[C@H](CO)NC(=O)[C@H](C)NC(=O)CC[C@H](NC(=O)CCCCCCCCCCCCCCCCCCC(=O)O)C(=O)O)C(=O)N[C@@H](CO)C(=O)N[C@H](C(=O)N[C@@H](C)C(=O)N[C@H](C(=O)N[C@@H](CC(C)C)C(=O)NCC(=O)N[C@@H](CCCNC(=N)N)C(=O)N[C@@H](CC(C)C)C(=O)N[C@@H](CO)C(=O)N[C@@H](C)C(=O)N[C@@H](CCC(=O)O)C(=O)N[C@@H](CC(C)C)C(=O)N[C@@H](Cc1cnc[nH]1)C(=O)N[C@@H](CCC(=O)O)C(=O)N[C@@H](CC(C)C)C(=O)N[C@@H](C)C(=O)N[C@H](C(=O)N[C@@H](Cc1ccc(O)cc1)C(=O)N1CCC[C@H]1C(=O)N[C@@H](CCCNC(=N)N)C(=O)N[C@H](C(=O)N[C@@H](CCC(=O)O)C(=O)N[C@H](C(=O)NCC(=O)N[C@@H](CO)C(=O)NCC(=O)N[C@H](C(=O)N[C@@H](Cc1ccc(O)cc1)C(N)=O)[C@@H](C)O)[C@@H](C)O)[C@@H](C)O)[C@@H](C)O)C(C)C)[C@@H](C)O ({C20 diacid-γGlu}-ASGLSTAVLGRLSAELHELATYPRTETGSGTY-NH2) | 28% | 26%
